Experimental data: patent publication US10988477B2 (Merck Patent GmbH, priority 2018, dated 2021)

Key:
GCN2 kinase = GCN2 kinase (Homo sapiens, UniProt Q9P2K8); assay: GCN2 enzyme inhibition assay (Transcreener ADP2 fluorescence polarization); type: biochemical; settings: 280 μM ATP
In short: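 Kinase activity is followed as ADP formation, measured by fluorescence polarization, using 4 nM enzyme with 280 μM ATP and 200 μM (RS)7 peptide at pH 7.5 and 25 °C for 1 h. Values come from a non-linear tight-binding fit.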

[1] = biological target: intracellular GCN2 (phosphorylation of the GCN2 substrate eIF2α) (Homo sapiens, UniProt Q9P2K8); assay: GCN2 cellular inhibition assay (AlphaScreen SureFire P-eIF2α Ser51, borrelidin-treated U2OS cells); type: cell-based; settings: biomarker assay, phosphorylated eIF2α Ser51 in borrelidin-treated U2OS cells
In short: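 U2OS cells adhered overnight, then treated with compounds (4-fold serial dilutions from 40 μM final) plus borrelidin 10 μM final for 1 h at 37 °C. Lysate eIF2α Ser51 phosphorylation measured by AlphaScreen SureFire. Percent inhibition calculated relative to borrelidin-only wells.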

[2] = Enzyme activity for compounds of Formula IV, Ki(app), 25° C.
[3] = compounds of Formula II, 4 nM GCN2 kinase

intracellular GCN2 (phosphorylation of the GCN2 substrate eIF2α), sequence (Q9P2K8 whole entry): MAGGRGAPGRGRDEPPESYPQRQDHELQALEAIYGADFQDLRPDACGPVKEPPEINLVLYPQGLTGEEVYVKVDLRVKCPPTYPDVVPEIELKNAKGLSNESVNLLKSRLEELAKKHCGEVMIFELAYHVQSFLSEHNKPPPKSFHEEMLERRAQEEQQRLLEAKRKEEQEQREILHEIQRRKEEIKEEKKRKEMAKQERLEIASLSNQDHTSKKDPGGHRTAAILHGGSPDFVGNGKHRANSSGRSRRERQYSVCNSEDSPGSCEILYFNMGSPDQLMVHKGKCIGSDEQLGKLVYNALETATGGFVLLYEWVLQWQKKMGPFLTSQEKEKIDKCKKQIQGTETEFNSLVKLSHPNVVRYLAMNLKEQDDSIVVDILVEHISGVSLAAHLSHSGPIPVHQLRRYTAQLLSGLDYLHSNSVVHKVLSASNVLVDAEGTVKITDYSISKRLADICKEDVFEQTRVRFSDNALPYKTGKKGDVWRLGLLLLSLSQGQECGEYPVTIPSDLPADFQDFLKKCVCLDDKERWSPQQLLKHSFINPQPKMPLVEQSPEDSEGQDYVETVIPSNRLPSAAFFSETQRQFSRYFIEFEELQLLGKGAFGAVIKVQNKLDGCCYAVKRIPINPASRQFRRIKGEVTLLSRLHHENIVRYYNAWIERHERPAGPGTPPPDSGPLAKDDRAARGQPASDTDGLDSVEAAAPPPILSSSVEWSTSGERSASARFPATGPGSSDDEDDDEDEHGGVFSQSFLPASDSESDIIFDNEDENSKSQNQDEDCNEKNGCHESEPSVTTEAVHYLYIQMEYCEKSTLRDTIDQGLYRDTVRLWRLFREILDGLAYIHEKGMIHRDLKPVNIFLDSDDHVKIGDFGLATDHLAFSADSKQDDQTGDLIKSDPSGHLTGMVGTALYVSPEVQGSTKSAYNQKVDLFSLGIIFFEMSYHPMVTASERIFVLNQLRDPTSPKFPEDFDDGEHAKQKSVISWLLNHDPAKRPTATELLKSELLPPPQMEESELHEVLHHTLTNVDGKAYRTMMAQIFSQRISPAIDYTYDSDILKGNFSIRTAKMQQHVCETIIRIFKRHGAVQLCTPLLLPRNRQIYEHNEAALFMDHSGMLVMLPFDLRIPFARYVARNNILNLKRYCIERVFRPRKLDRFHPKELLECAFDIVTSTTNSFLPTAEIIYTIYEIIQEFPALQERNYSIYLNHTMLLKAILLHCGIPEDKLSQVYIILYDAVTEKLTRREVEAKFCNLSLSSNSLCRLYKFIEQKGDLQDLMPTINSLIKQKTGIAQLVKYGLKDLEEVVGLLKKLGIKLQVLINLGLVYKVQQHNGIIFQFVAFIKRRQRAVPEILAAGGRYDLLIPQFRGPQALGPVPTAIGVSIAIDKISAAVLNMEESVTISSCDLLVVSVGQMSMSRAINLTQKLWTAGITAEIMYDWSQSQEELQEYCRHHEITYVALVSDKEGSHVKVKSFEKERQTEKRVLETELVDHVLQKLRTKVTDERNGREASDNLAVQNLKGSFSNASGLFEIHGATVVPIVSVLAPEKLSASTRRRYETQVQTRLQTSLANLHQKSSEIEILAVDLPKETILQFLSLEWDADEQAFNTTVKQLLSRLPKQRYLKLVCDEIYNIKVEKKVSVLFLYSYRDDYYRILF
GCN2 kinase, sequence (Q9P2K8 whole entry): as above

SMILES | Ki (GCN2 kinase; [2]) | IC50 ([1]; compounds of Formula IV) | Ki (GCN2 kinase; [3]) | IC50 ([1]; compounds of Formula II) | IC50 (GCN2 kinase; compounds of Formula IV, 4 nM GCN2 kinase)
FC(F)c1ccc2ncc(-c3cc(N4CCOC5CC54)ncn3)n2n1 (centres unmarked) [II-301, 5-(6-(6-(Difluoromethyl)imidazo[1,2-b]pyridazin-3-yl)pyrimidin-4-yl)-2-oxa-5-azabicyclo[4.1.0]heptane] |  |  | 10 to 1000 nM | 500 to 5000 nM | 
OCCC1CN(c2cc(-c3cnc4ccc(C(F)F)nn34)ncn2)CCO1 (centres unmarked) [II-498, 2-(4-(6-(6-(Difluoromethyl)imidazo[1,2-b]pyridazin-3-yl)pyrimidin-4-yl)morpholin-2-yl)ethan-1-ol] |  |  | 10 to 1000 nM | > 5000 nM | 
CC(=O)N1CCN(c2cc(-c3cnc4ccc(N5CCC(N)C5)nn34)ccn2)CC1 (centres unmarked) [II-736, 1-(4-(4-(6-(3-aminopyrrolidin-1-yl)imidazo[1,2-b]pyridazin-3-yl)pyridin-2-yl)piperazin-1-yl)ethan-1-one] |  |  | > 1000 nM | > 5000 nM | 
CC(NS(C)(=O)=O)C1CN(c2cc(-c3cnc4ccc(C(F)F)nn34)ncn2)CCN1 (centres unmarked) [II-465, N-(1-(4-(6-(6-(Difluoromethyl)imidazo[1,2-b]pyridazin-3-yl)pyrimidin-4-yl)piperazin-2-yl)ethyl)methanesulfonamide] |  |  | 10 to 1000 nM | 500 to 5000 nM | 
N#CCC1CCCN(c2cc(-c3cnc4ccc(C(F)F)nn34)ncn2)C1 (centres unmarked) [II-299, 2-(1-(6-(6-(Difluoromethyl)imidazo[1,2-b]pyridazin-3-yl)pyrimidin-4-yl)piperidin-3-yl)acetonitrile] |  |  | 10 to 1000 nM | 500 to 5000 nM | 
OCCn1cc(-c2cc(-c3cnc4ccc(C(F)F)nn34)ccn2)cn1 [II-113, 2-(4-(4-(6-(Difluoromethyl)imidazo[1,2-b]pyridazin-3-yl)pyridin-2-yl)-1H-pyrazol-1-yl)ethanol] |  |  | 10 to 1000 nM | 500 to 5000 nM | 
OC[C@@H]1CN(c2cc(-c3cnc4ccc(C(F)F)nn34)ncn2)CCO1 [II-9, (S)-(4-(6-(6-(Difluoromethyl)imidazo[1,2-b]pyridazin-3-yl)pyrimidin-4-yl)morpholin-2-yl)methanol] |  |  | 10 to 1000 nM | 500 to 5000 nM | 
CC1CC(N=S(C)(C)=O)CN(c2cc(-c3cnc4ccc(C(N)=O)nn34)ncn2)C1 (centres unmarked) [II-726, 3-(6-(3-((Dimethyl(oxo)-λ^6-sulfanylidene)amino)-5-methylpiperidin-1-yl)pyrimidin-4-yl)imidazo[1,2-b]pyridazine-6-carboxamide] |  |  | 10 to 1000 nM | > 5000 nM | 
CC1CN(C)C(CNS(C)(=O)=O)CN1c1cc(-c2cnc3ccc(C(F)F)nn23)ncn1 (centres unmarked) [II-423, N-((4-(6-(6-(Difluoromethyl)imidazo[1,2-b]pyridazin-3-yl)pyrimidin-4-yl)-1,5-dimethylpiperazin-2-yl)methyl)methanesulfonamide] |  |  | 10 to 1000 nM | > 5000 nM | 
CC(=O)NCC1CCCN(c2cc(-c3cnc4ccc(C(F)F)nn34)ncn2)C1 (centres unmarked) [II-261, N-((1-(6-(6-(Difluoromethyl)imidazo[1,2-b]pyridazin-3-yl)pyrimidin-4-yl)piperidin-3-yl)methyl)acetamide] |  |  | 10 to 1000 nM | 500 to 5000 nM | 
CS(=O)(=O)NCC1CC(O)CN(c2cc(-c3cnc4ccc(C(F)F)nn34)ncn2)C1 (centres unmarked) [II-12, N-((1-(6-(6-(Difluoromethyl)imidazo[1,2-b]pyridazin-3-yl)pyrimidin-4-yl)-5-hydroxypiperidin-3-yl)methyl)methanesulfonamide] |  |  | 10 to 1000 nM | 500 to 5000 nM | 
FC(F)c1ccc2ncc(-c3cc(N4CCC(Cc5ccn[nH]5)CC4)ncn3)n2n1 [II-217, 3-(6-(4-((1H-Pyrazol-5-yl)methyl)piperidin-1-yl)pyrimidin-4-yl)-6-(difluoromethyl)imidazo[1,2-b]pyridazine] |  |  | 10 to 1000 nM | 500 to 5000 nM | 
FC(F)c1ccc2ncc(-c3cc(N4CCc5ccccc54)ncn3)n2n1 [II-20, 6-(Difluoromethyl)-3-(6-(indolin-1-yl)pyrimidin-4-yl)imidazo[1,2-b]pyridazine] |  |  | 10 to 1000 nM | > 5000 nM | 
FC(F)c1ccc2ncc(-c3ccnc(N4CC5(CNC5)C4)c3)n2n1 [II-79, 3-(2-(2,6-Diazaspiro[3.3]heptan-2-yl)pyridin-4-yl)-6-(difluoromethyl)imidazo[1,2-b]pyridazine] |  |  | 10 to 1000 nM | > 5000 nM | 
CC1NCCN(c2cc(-c3cnc4ccc(C(F)F)nn34)ncn2)C1C (centres unmarked) [II-548, 6-(Difluoromethyl)-3-(6-(2,3-dimethylpiperazin-1-yl)pyrimidin-4-yl)imidazo[1,2-b]pyridazine] |  |  | > 1000 nM | > 5000 nM | 
FC(F)(F)c1ccc2ncc(-c3ccnc(N4CCOC(c5cn[nH]c5)C4)c3)n2n1 (single isomer, unassigned) [II-230, 2-(1H-Pyrazol-4-yl)-4-(4-(6-(trifluoromethyl)imidazo[1,2-b]pyridazin-3-yl)pyridin-2-yl)morpholine] |  |  | < 10 nM | < 500 nM | 
CS(=O)(=O)CCN1CCC(c2cc(-c3cnc4ccc(C(F)F)nn34)ncn2)C1 (centres unmarked) [II-255, 6-(Difluoromethyl)-3-(6-(1-(2-(methylsulfonyl)ethyl)pyrrolidin-3-yl)pyrimidin-4-yl)imidazo[1,2-b]pyridazine] |  |  | 10 to 1000 nM | > 5000 nM | 
CCN1CCN(c2cc(-c3cnc4ccc(C(F)F)nn34)ncn2)C(C)C1CNS(C)(=O)=O (centres unmarked) [II-340, N-((4-(6-(6-(Difluoromethyl)imidazo[1,2-b]pyridazin-3-yl)pyrimidin-4-yl)-1-ethyl-3-methylpiperazin-2-yl)methyl)methanesulfonamide] |  |  | 10 to 1000 nM | < 500 nM | 
CS(=O)(=O)NCC1CCCN(c2cc(-c3cnc4ccc(C#N)nn34)ncn2)C1 (centres unmarked) [II-692, N-[[1-[6-(6-Cyanoimidazo[1,2-b]pyridazin-3-yl)pyrimidin-4-yl]-3-piperidyl]methyl]methanesulfonamide] |  |  | 10 to 1000 nM | 500 to 5000 nM | 

The next lines start with the values.

Ki (GCN2 kinase; [2]) | IC50 ([1]; compounds of Formula IV) | Ki (GCN2 kinase; [3]) | IC50 ([1]; compounds of Formula II) | IC50 (GCN2 kinase; compounds of Formula IV, 4 nM GCN2 kinase) | SMILES
< 10 nM | < 500 nM |  |  |  | FC(F)(F)c1cn2c(-c3nccc(N4CCCC(c5cn[nH]c5)C4)n3)cnc2cn1 (centres unmarked) [IV-59, 3-(4-(3-(1H-Pyrazol-4-yl)piperidin-1-yl)pyrimidin-2-yl)-6-(trifluoromethyl)imidazo[1,2-a]pyrazine]
< 10 nM | 500 to 5000 nM |  |  |  | FC(F)(F)c1cn2c(-c3nccc(N4CCCC(c5cn[nH]c5)C4)n3)cnc2cn1 (single isomer, unassigned) [IV-545, 3-(4-(3-(1H-Pyrazol-4-yl)piperidin-1-yl)pyrimidin-2-yl)-6-(trifluoromethyl)imidazo[1,2-a]pyrazine]
100 to 1000 nM | > 5000 nM |  |  |  | NS(=O)(=O)CC1CCCN(c2ccnc(-c3cnc4cnc(C(F)F)cn34)n2)C1 (centres unmarked) [IV-114, (1-(2-(6-(Difluoromethyl)imidazo[1,2-a]pyrazin-3-yl)pyrimidin-4-yl)piperidin-3-yl)methanesulfonamide]
100 to 1000 nM | > 5000 nM |  |  |  | OCC1CCCCN(c2ccnc(-c3cnc4cnc(C(F)F)cn34)n2)C1 (centres unmarked) [IV-88, (1-(2-(6-(Difluoromethyl)imidazo[1,2-a]pyrazin-3-yl)pyrimidin-4-yl)azepan-3-yl)methanol]
100 to 1000 nM | > 5000 nM |  |  |  | NC(=O)C1CN(c2ccnc(-c3cnc4cnc(C(F)F)cn34)n2)CCO1 (centres unmarked) [IV-48, 4-(2-(6-(Difluoromethyl)imidazo[1,2-a]pyrazin-3-yl)pyrimidin-4-yl)morpholine-2-carboxamide]
< 10 nM | 500 to 5000 nM |  |  |  | OC1CCN(c2ccnc(-c3cnc4cnc(C(F)(F)F)cn34)n2)CC1c1cn[nH]c1 (single isomer, unassigned) [IV-622, 3-(1H-Pyrazol-4-yl)-1-(2-(6-(trifluoromethyl)imidazo[1,2-a]pyrazin-3-yl)pyrimidin-4-yl)piperidin-4-ol]
< 10 nM | < 500 nM |  |  |  | FC(F)(F)c1cn2c(-c3nccc(N4CCCC(c5cn[nH]n5)C4)n3)cnc2cn1 (centres unmarked) [IV-378, 3-(4-(3-(2H-1,2,3-Triazol-4-yl)piperidin-1-yl)pyrimidin-2-yl)-6-(trifluoromethyl)imidazo[1,2-a]pyrazine]
 | < 500 nM |  |  | 10 to 1000 nM | C[C@H]1C[C@H](c2c[nH]nc2F)CN(c2nccc(-c3cnc4cnc(C(F)(F)F)cn34)n2)C1 [IV-754, 3-(2-((3R,5S)-3-(3-fluoro-1H-pyrazol-4-yl)-5-methylpiperidin-1-yl)pyrimidin-4-yl)-6-(trifluoromethyl)imidazo[1,2-a]pyrazine]
< 10 nM | 500 to 5000 nM |  |  |  | NC(=O)C1CCCN(c2ccnc(-c3cnc4cnc(C(F)(F)F)cn34)n2)C1 (centres unmarked) [IV-626, 1-(2-(6-(Trifluoromethyl)imidazo[1,2-a]pyrazin-3-yl)pyrimidin-4-yl)piperidine-3-carboxamide]
10 to 100 nM | 500 to 5000 nM |  |  |  | CC1CN(c2ccnc(-c3cnc4cnc(Cl)cn34)n2)C(C)C(c2c[nH]cn2)N1 (centres unmarked) [IV-349, 3-(4-(3-(1H-Imidazol-4-yl)-2,5-dimethylpiperazin-1-yl)pyrimidin-2-yl)-6-chloroimidazo[1,2-a]pyrazine]
100 to 1000 nM | > 5000 nM |  |  |  | FC(F)c1cn2c(-c3nccc(N4CCCC5CC54)n3)cnc2cn1 (centres unmarked) [IV-135, 3-(4-(2-Azabicyclo[4.1.0]heptan-2-yl)pyrimidin-2-yl)-6-(difluoromethyl)imidazo[1,2-a]pyrazine]
10 to 100 nM | 500 to 5000 nM |  |  |  | FC(F)c1cn2c(-c3nccc(N4CCCC(c5c[nH]cn5)C4)n3)cnc2cn1 (centres unmarked) [IV-53, 3-(4-(3-(1H-Imidazol-4-yl)piperidin-1-yl)pyrimidin-2-yl)-6-(difluoromethyl)imidazo[1,2-a]pyrazine]
